Assay results reported in patent US20250145665A1, “MACROCYCLIC PEPTIDES USEFUL AS MODULATORS OF TNF ALPHA” (Bristol-Myers Squibb Company, priority 2023, published 2025).
Starred links: 1 amine or outer side, 2 acyl side, 3 side chain; linkers in the order of their positions; H or OH if unused. Positions of bridges follow the written chain, without caps; N, C: chain ends. Non-standard residues stand in square brackets, D forms with d. Residues, ends and D or L forms follow the SMILES beside them. *: point of attachment. Bip(4'-NH) = O=C([C@H](Cc1ccc(-c2ccc(N[*:3])cc2)cc1)N[*:1])[*:2]; dArg(ω-(3-HO-benzyl)) = N=C(NCCC[C@@H](N)C(=O)O)NCc1cccc(O)c1; Bip(4'-COOH) = N[C@@H](Cc1ccc(-c2ccc(C(=O)O)cc2)cc1)C(=O)O; Bip(4'-NHAc) = CC(=O)Nc1ccc(-c2ccc(C[C@H](N)C(=O)O)cc2)cc1; Phe(4-(4-pyridyl)) = N[C@@H](Cc1ccc(-c2ccncc2)cc1)C(=O)O; Ala(imidazol-2-yl) = N[C@@H](Cc1ncc[nH]1)C(=O)O; Ala(morpholin-4-yl) = N[C@@H](CN1CCOCC1)C(=O)O; Benzoyl(3-OCH2COOH) = O=C(O)COc1cccc(C(=O)*)c1; X88 = CC(=O)N[C@@H](Cc1ccc(OCC(=O)O)cc1)C(=O)*; Bip = N[C@@H](Cc1ccc(-c2ccccc2)cc1)C(=O)O; Phe(4-NH2) = Nc1ccc(C[C@H](N)C(=O)O)cc1; Val(3-OH) = CC(C)(O)[C@H](N)C(=O)O; 2Pal = N[C@@H](Cc1ccccn1)C(=O)O; 3Pal = N[C@@H](Cc1cccnc1)C(=O)O; Cha = N[C@@H](CC1CCCCC1)C(=O)O; d(αMeP) = C[C@]1(C(=O)O)CCCN1; Tle = CC(C)(C)[C@H](N)C(=O)O; Nle = CCCC[C@H](N)C(=O)O; Sar = CNCC(=O)O

The molecules below were run against TNFα (Homo sapiens, UniProt P01375) (assay: TNF-Induced HEK-Blue Assay). Settings: HEK-Blue-CD40L cells, NF-kB-driven secreted alkaline phosphatase reporter; TNFα 0.5 ng/ml; 18 h; read-out: TNF induced HEK-Blue assay IC50 value.
Chain of TNFα (P01375 77-233 limits assumed): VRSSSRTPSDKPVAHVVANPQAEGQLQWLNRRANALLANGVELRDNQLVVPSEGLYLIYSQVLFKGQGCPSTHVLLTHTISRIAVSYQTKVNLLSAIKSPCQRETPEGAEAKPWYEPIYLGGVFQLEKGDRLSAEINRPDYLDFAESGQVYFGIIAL
Type: cell-based

IC50 [nM]	Compound
< 50	CC(C)C[C@@H]1NC(=O)[C@H](Cc2ncc[nH]2)NC(=O)[C@H](C(C)C)NC(=O)[C@@H]2CCCN2C(=O)[C@H](C(C)C)NC(=O)[C@@H](CCCNC(=N)NCc2cccc(O)c2)NC(=O)[C@H](CC(=O)O)NC(=O)[C@H](Cc2ccccn2)NC(=O)CN(C)C(=O)[C@H](Cc2ccc(-c3ccc(NC(=O)c4cccc(OCC(=O)O)c4)cc3)cc2)NC(=O)[C@H](Cc2ccc(-c3ccc(C(=O)O)cc3)cc2)NC(=O)[C@H](CC2CCCCC2)NC(=O)CSC[C@@H](C(=O)NCC(N)=O)NC1=O [Example 555] ({CH2CO}-[Cha][Bip(4'-COOH)][Bip(4'-NH)](Benzoyl(3-OCH2COOH))[Sar][2Pal]D[dArg(ω-(3-HO-benzyl))]VPV[Ala(imidazol-2-yl)]LCG-NH2; thioether N-13)
50 to 200	CC(=O)Nc1ccc(-c2ccc(C[C@@H]3NC(=O)[C@H](Cc4ccc(-c5ccc(C(=O)O)cc5)cc4)NC(=O)[C@H](C(C)(C)C)NC(=O)CSC[C@@H](C(=O)NCC(N)=O)NC(=O)[C@H](CC(C)C)NC(=O)[C@H](Cc4ccc(O)cc4)NC(=O)[C@H](C(C)C)NC(=O)[C@@H]4CCCN4C(=O)[C@H](C(C)C)NC(=O)[C@@H](CCCNC(=N)N)NC(=O)[C@H](CC(=O)O)NC(=O)[C@@H]4CCCN4C(=O)CN(C)C3=O)cc2)cc1 [Example 265] ({CH2CO}-[Tle][Bip(4'-COOH)][Bip(4'-NHAc)][Sar]PD[dR]VPVYLCG-NH2; thioether N-13)
< 50	CC[C@H](C)[C@@H]1NC(=O)[C@@H]2CCCN2C(=O)[C@H]([C@@H](C)CC)NC(=O)[C@@H](CCCNC(=N)N)NC(=O)[C@H](CC(=O)O)NC(=O)[C@H](Cc2ccccc2)NC(=O)CN(C)C(=O)[C@H](Cc2ccc(-c3ccc(NC(=O)[C@H](Cc4ccc(OCC(=O)O)cc4)NC(C)=O)cc3)cc2)NC(=O)[C@H](Cc2ccc(-c3ccc(C(=O)O)cc3)cc2)NC(=O)[C@H](C(C)(C)C)NC(=O)CSC[C@@H](C(=O)NCC(N)=O)NC(=O)[C@H](CC(C)C)NC(=O)[C@H](Cc2ncc[nH]2)NC1=O [Example 417] ({CH2CO}-[Tle][Bip(4'-COOH)][Bip(4'-NH)](X88)[Sar]FD[dR]IPI[Ala(imidazol-2-yl)]LCG-NH2; thioether N-13)

Continued, molecule first:

Compound	IC50 [nM]
CC(C)C[C@@H]1NC(=O)[C@H](Cc2ccc(O)cc2)NC(=O)[C@H](C(C)C)NC(=O)[C@@H]2CCCN2C(=O)[C@H](C(C)C)NC(=O)[C@H](CCCNC(=N)N)NC(=O)[C@H](CC(=O)O)NC(=O)[C@@]2(C)CCCN2C(=O)CN(C)C(=O)[C@H](Cc2ccc(-c3ccccc3)cc2)NC(=O)[C@H](Cc2ccc(-c3ccccc3)cc2)NC(=O)[C@H](CN2CCOCC2)NC(=O)CSC[C@@H](C(=O)NCC(N)=O)NC1=O [Example 101] ({CH2CO}-[Ala(morpholin-4-yl)][Bip][Bip][Sar][d(αMeP)]DRVPVYLCG-NH2; thioether N-13)	50 to 200
CC(C)[C@@H]1NC(=O)[C@H](CCCNC(=N)N)NC(=O)[C@H](C(C)C)NC(=O)[C@@H]2CCCN2C(=O)[C@H](C(C)C)NC(=O)[C@H](CCCNC(=N)N)NC(=O)[C@H](CC(=O)O)NC(=O)[C@@H]2CCCN2C(=O)CN(C)C(=O)[C@H](Cc2ccc(-c3ccccc3)cc2)NC(=O)[C@H](Cc2ccc(-c3ccncc3)cc2)NC(=O)[C@H](CN2CCOCC2)NC(=O)CSC[C@@H](C(=O)NCC(N)=O)NC1=O [Example 87] ({CH2CO}-[Ala(morpholin-4-yl)][Phe(4-(4-pyridyl))][Bip][Sar]PDRVPVRVCG-NH2; thioether N-13)	50 to 200
CCCC[C@@H]1NC(=O)[C@@H]2CCCN2C(=O)[C@H](C(C)C)NC(=O)[C@@H](CCCNC(=N)N)NC(=O)[C@H](CC(=O)O)NC(=O)[C@H](Cc2ccc(O)cc2)NC(=O)CN(C)C(=O)[C@H](Cc2ccc(-c3ccccc3)cc2)NC(=O)[C@H](Cc2ccc(-c3ccccc3)cc2)NC(=O)[C@H](CN2CCOCC2)NC(=O)CSC[C@@H](C(=O)NCC(N)=O)NC(=O)[C@H](CC(C)C)NC(=O)[C@H](Cc2ccc(O)cc2)NC1=O [Example 163] ({CH2CO}-[Ala(morpholin-4-yl)][Bip][Bip][Sar]YD[dR]VP[Nle]YLCG-NH2; thioether N-13)	200 to 2000
CC(C)C[C@@H]1NC(=O)[C@H](Cc2ccc(O)cc2)NC(=O)[C@H](C(C)C)NC(=O)[C@@H]2CCCN2C(=O)[C@H](Cc2cccnc2)NC(=O)[C@@H](CCCNC(=N)N)NC(=O)[C@H](CC(=O)O)NC(=O)[C@@H]2CCCN2C(=O)CN(C)C(=O)[C@H](Cc2ccc(-c3ccccc3)cc2)NC(=O)[C@H](Cc2ccc(-c3ccccc3)cc2)NC(=O)[C@H](CN2CCOCC2)NC(=O)CSC[C@@H](C(=O)NCC(N)=O)NC1=O [Example 119] ({CH2CO}-[Ala(morpholin-4-yl)][Bip][Bip][Sar]PD[dR][3Pal]PVYLCG-NH2; thioether N-13)	200 to 2000
CC(C)C[C@@H]1NC(=O)[C@H](CCCNC(=N)N)NC(=O)[C@H](C(C)C)NC(=O)[C@@H]2CCCN2C(=O)[C@H](Cc2ccc(N)cc2)NC(=O)[C@H](CCCNC(=N)N)NC(=O)[C@H](CC(=O)O)NC(=O)[C@@H]2CCCN2C(=O)CN(C)C(=O)[C@H](Cc2ccc(-c3ccccc3)cc2)NC(=O)[C@H](Cc2ccc(-c3ccccc3)cc2)NC(=O)[C@H](C(C)(C)O)NC(=O)CSC[C@@H](C(=O)NCC(N)=O)NC1=O [Example 61] ({CH2CO}-[Val(3-OH)][Bip][Bip][Sar]PDR[Phe(4-NH2)]PVRLCG-NH2; thioether N-13)	200 to 2000
